Test: Solid-state properties of brigatinib Form A (hygroscopicity, polymorphic conversion)
Assay type: physicochemical

hygroscopicity: non-hygroscopic
SMILES: COc1cc(N2CCC(N3CCN(C)CC3)CC2)ccc1Nc1ncc(Cl)c(Nc2ccccc2P(C)(C)=O)n1 [Brigatinib Form A, 5-chloro-N4-[2-(dimethylphosphoryl)phenyl]-N2-{2-methoxy-4-[4-(4-methylpiperazin-1-yl)piperidin-1-yl]phenyl}pyrimidine-2,4-diamine]
conversion to other polymorphic forms (solvent-mediated or solid-solid transitions, elevated temperature, elevated humidity, mechanical pressure or grinding): does not convert to other polymorphic forms
